Source: article PMC11079024, “Identification of a family of species-selective complex I inhibitors as potential anthelmintics” (Nature Communications, 2024)
Where two headings read alike, the source gives them in different places.

Key:
[1] = target: C. elegans (N2) complex I (NADH:ubiquinone oxidoreductase) (Caenorhabditis elegans, UniProt P24887+Q93873+Q94360); experiment: biochemical; type: biochemical; details: for Log IC50 C. elegans complex I: log10 of IC50 in µM, C. elegans mitochondria
Summary of the method: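 Complex I rate: initial linear slope of A600 over 15 min, expressed as percent of solvent control. Triple freeze-thawed mitochondria (0.2 mg/mL) in KPi pH 7.5, BSA 3 mg/mL, NADH 80 μM, decylubiquinone 60 μM, DCIP 160 μM, antimycin A, KCN.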

[2] = test system: L1 wild-type C. elegans; details: for Screen "Hit": hit = relative motility below 0.25 3 hours after removal of KCN
[3] = test system: L1 wild-type C. elegans; experiment: microbe, parasite or virus in culture; details: Caenorhabditis elegans, read-out: C. elegans KCN Survival Assay LC50, estimated from fitted dose-response curves; mean of at least two biological replicates
[4] = in vitro complex I dose response on C. elegans mitochondria, average of at least two biological replicates, fit in R (DRC), read-out: IC50 C. elegans complex I
[5] = wild-type (N2) mitochondria, read-out: C. elegans Complex I IC50
[6] = wild-type C. elegans mitochondria, estimated from fitted dose-response curves, read-out: C. elegans Complex I IC50

Chain of C. elegans (N2) complex I (NADH:ubiquinone oxidoreductase) (Q94360 17-199): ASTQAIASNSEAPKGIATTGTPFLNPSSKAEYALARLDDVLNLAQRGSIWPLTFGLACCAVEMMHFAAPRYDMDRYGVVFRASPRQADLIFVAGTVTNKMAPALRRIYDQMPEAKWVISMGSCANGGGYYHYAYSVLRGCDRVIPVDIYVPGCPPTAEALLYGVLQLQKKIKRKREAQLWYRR
Chain of C. elegans (N2) complex I (NADH:ubiquinone oxidoreductase) (P24887 whole entry): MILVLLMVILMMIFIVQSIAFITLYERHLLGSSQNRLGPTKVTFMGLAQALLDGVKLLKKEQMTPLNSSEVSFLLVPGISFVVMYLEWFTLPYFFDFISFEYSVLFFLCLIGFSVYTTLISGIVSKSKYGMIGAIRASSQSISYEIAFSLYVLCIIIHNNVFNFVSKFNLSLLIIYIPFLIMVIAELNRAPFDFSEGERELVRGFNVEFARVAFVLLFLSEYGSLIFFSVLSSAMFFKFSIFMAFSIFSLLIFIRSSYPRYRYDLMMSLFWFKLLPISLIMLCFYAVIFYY
Chain of C. elegans (N2) complex I (NADH:ubiquinone oxidoreductase) (Q93873 31-482): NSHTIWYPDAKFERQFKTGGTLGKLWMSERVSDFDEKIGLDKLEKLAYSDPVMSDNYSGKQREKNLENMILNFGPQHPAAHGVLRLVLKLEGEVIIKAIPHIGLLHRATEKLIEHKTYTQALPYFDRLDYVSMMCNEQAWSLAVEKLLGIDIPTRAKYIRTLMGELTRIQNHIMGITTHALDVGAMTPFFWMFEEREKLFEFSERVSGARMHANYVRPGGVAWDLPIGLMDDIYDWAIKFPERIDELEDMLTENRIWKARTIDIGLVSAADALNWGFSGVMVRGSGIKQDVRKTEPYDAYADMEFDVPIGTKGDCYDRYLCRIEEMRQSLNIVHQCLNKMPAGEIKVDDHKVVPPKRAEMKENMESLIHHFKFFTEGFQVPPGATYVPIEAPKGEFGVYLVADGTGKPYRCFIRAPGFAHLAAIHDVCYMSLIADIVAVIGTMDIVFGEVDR

Cc1nc2ccccc2n1CCOc1ccccc1 [Compound 5550112] was tested, and the activity at 0.0001 µM ([1]; Dose 0.0001 µM, read-out: C. elegans mitochondrial complex I activity) was 88.8%, the activity at 0.0005 µM ([1]; Dose 0.0005 µM, read-out: C. elegans mitochondrial complex I activity) was 84.9% and the activity at 0.001 µM ([1]; Dose 0.001 µM, read-out: C. elegans mitochondrial complex I activity) was 88.8%. The activity at 0.0025 µM ([1]; Dose 0.0025 µM, read-out: C. elegans mitochondrial complex I activity) was 93.8%, the activity at 0.005 µM ([1]; Dose 0.005 µM, read-out: C. elegans mitochondrial complex I activity) was 86.7% and the activity at 0.013 µM ([1]; Dose 0.013 µM, read-out: C. elegans mitochondrial complex I activity) was 87.2%. The activity at 0.025 µM ([1]; Dose 0.025 µM, read-out: C. elegans mitochondrial complex I activity) was 83.3%, the activity at 0.063 µM ([1]; Dose 0.063 µM, read-out: C. elegans mitochondrial complex I activity) was 78.1% and the activity at 0.125 µM ([1]; Dose 0.125 µM, read-out: C. elegans mitochondrial complex I activity) was 80.5%. For the same compound, the activity at 0.313 µM ([1]; Dose 0.313 µM, read-out: C. elegans mitochondrial complex I activity) was 78%, the activity at 0.625 µM ([1]; Dose 0.625 µM, read-out: C. elegans mitochondrial complex I activity) was 89.4% and the activity at 1.5 µM ([1]; Dose 1.5 µM, read-out: C. elegans mitochondrial complex I activity) was 71.3%. For the same compound, the activity at 3 µM ([1]; Dose 3 µM, read-out: C. elegans mitochondrial complex I activity) was 60.5%, the activity at 15 µM ([1]; Dose 15 µM, read-out: C. elegans mitochondrial complex I activity) was 24.9% and the activity at 37.5 µM ([1]; Dose 37.5 µM, read-out: C. elegans mitochondrial complex I activity) was 11.1%. The activity at 75 µM ([1]; Dose 75 µM, read-out: C. elegans mitochondrial complex I activity) was 5.83%, the IC50 [1, 4] was 5790 nM and the “Log IC50 C. elegans complex I” value [1] was 0.76 µM. The IC50 ([1]; wild-type C. elegans mitochondria, read-out: C. elegans Complex I IC50) was 5790 nM, the “Screen "Hit"” value ([2]; 50 μM) was “Y (hits were identified as compounds that reduced relative motility below 0.25 (75% reduction))” and the “C. elegans KCN Survival” value ([2]; Dose 0.2 µM, mean of at least three biological replicates) was 0.995. The “C. elegans KCN Survival” value ([2]; Dose 0.39 µM) was 1.044, the “C. elegans KCN Survival” value ([2]; Dose 1.56 µM) was 1.038 and the “C. elegans KCN Survival” value ([2]; Dose 3.13 µM) was 1.021. The “C. elegans KCN Survival” value ([2]; Dose 6.25 µM) was 1.008, the “C. elegans KCN Survival” value ([2]; Dose 12.5 µM) was 0.918 and the “C. elegans KCN Survival” value ([2]; Dose 25 µM) was 0.699. The “C. elegans KCN Survival” value ([2]; Dose 50 µM) was 0.269, the “C. elegans KCN Survival” value ([2]; Dose 100 µM) was 0.187 and the LC50 [3] was 32900 nM.

With C=CCn1c(C(C)c2ccc(CC(C)C)cc2)nc2ccccc21 (stereo not drawn) [STL020755] the IC50 [1, 4] was 2270 nM, the “Log IC50 C. elegans complex I” value [1] was 0.36 µM and the IC50 [1, 5] was 2270 nM. For the same compound, the IC50 [1, 6] was 2270 nM, the “Screen "Hit"” value ([2]; 50 μM compound) was “Y (hits were identified as compounds that reduced relative motility below 0.25 (75% reduction))” and the LC50 [3] was 9970 nM.

With CCn1c(C(C)c2ccc(CC(C)C)cc2)nc2ccccc21 (stereo not drawn) [STK951902] the IC50 [1, 4] was 1830 nM, the “Log IC50 C. elegans complex I” value [1] was 0.26 µM and the IC50 [1, 5] was 1830 nM. For the same compound, the IC50 [1, 6] was 1830 nM, the “Screen "Hit"” value ([2]; 50 μM compound) was “Y (hits were identified as compounds that reduced relative motility below 0.25 (75% reduction))” and the LC50 [3] was 8700 nM.
